A short description of data set [1]: Pharmacokinetics assay in rat. Format: in vivo, SD rats. Also on record: Mean plasma drug concentration: unit not given here. The settings on record: for Cmax: read-out: C0 or Cmax; for half-life: read-out: T½ (converted). The procedure:
Experimental Example 2: Pharmacokinetics Assay in Rat
12 male SD rats were divided into 4 groups with 3 SD rats in each group. 2 groups of animals were administered by intravenous injection (IV) 1 mg/kg of the control Toll-like receptor 7 agonist GS-9620 and Example 1 compound as 10% hydroxypropyl-β-cyclodextrin aqueous solution (concentration is 0.5 mg/mL), respectively. The other 2 groups were administered orally (PO) 5 mg/kg of GS-9620 and 3 mg/kg of Example 1 compound as 0.5% methylcellulose/0.2% Tween 80 pure water suspension (concentration is 1 mg/mL). […] Each rat with oral administration was collected for whole blood samples which were prepared into plasma 15, 30 min and 1, 2, 4, 8, 24 h continuously after administration. The plasma concentrations of GS-9620 and Example 1 compound were determined with LC-MS/MS.

Data set [2] concerns the target T1, Toll-like receptor 8 (HEK-blue hTLR8 cell) (Homo sapiens, UniProt Q9NR97).
T1 construct: host or cells: HEK-blue hTLR8 cell (HEK293-derived reporter line)
T1 sequence (Q9NR97 27-1041): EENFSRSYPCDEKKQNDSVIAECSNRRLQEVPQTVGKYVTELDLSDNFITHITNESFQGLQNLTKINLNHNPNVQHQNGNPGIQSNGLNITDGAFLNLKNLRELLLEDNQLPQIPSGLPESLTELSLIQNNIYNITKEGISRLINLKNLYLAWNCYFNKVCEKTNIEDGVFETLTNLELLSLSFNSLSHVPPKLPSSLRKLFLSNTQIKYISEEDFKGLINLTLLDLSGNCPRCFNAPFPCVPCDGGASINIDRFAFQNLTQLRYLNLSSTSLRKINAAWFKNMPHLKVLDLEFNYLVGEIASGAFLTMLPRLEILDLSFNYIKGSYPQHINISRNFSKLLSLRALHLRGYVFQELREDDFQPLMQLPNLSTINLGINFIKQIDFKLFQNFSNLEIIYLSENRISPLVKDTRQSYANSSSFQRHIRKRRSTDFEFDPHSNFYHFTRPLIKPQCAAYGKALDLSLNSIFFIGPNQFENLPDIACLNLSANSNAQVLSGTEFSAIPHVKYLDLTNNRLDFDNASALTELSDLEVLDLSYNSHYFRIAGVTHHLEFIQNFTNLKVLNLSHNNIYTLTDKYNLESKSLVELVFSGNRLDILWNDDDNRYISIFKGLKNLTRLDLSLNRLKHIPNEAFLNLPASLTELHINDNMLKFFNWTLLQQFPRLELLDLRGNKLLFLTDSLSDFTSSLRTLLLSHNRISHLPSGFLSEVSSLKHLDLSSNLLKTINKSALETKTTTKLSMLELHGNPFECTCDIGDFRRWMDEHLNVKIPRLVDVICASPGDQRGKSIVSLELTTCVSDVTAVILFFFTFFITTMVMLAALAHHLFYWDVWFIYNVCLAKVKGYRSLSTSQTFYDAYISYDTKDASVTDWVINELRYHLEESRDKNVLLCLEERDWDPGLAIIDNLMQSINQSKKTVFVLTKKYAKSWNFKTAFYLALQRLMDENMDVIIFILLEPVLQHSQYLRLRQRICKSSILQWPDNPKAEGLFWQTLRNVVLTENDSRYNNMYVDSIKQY
In words: Toll-like receptor 8 in vitro receptor binding activity (HEK-blue hTLR8 cell, Quanti-Blue alkaline phosphatase reporter). It counts as cell-based. The conditions noted are these: 24 h incubation, read-out: TLR8 EC50. The procedure:
(§1) Experimental Example 1: Toll-Like Receptor 7 and Toll-Like Receptor 8 In Vitro Receptor Binding Activity
(§2) HEK-blue hTLR7 cell and HEK-blue hTLR8 cell (available from InvivoGen)
(§3) The GS-9620 and R848 used have the following structures. GS-9620 can be prepared according the process disclosed in US20100143301; R848 is purchased from ABGENT (Catalog: IMG-2208, 0.5 mg).
(§4) The compounds were gradient diluted with DMSO in 3-fold using liquid work station POD starting at a concentration of 10 mmol/L and 10 points were diluted (2nd column to 11th column, and each point was duplicated). At 12th column, 1 μL of 5 mg/mL positive compound R848 was added as positive control; and at 1 st column, 1 μL of DMSO was added as negative control. Each well contained 1 μL of DMSO.
(§5) 2. The cells in cell culture flask were collected and the cell density was diluted to 250,000 cells/mL.
(§6) 3. 200 μL (50,000 cells/well) of cell suspension was added into prepared compound plate and the final concentration of DMSO in each well was 0.5%.
(§7) 4. The culture plates containing cells and the compounds were incubated in CO2 incubator for 24 h at 37° C., 5% CO2.
(§8) 5. After 24 h incubation, 20 μL of supernatant was removed from each well of the cell culture plates to a 96-well transparent assay plate. […]
(§9) 6. After 1 h, the content of alkaline phosphatase in 20 μL of supernatant was determined using Microplate Reader at OD650. […]

The target in data set [3] is T2, Toll-like receptor 7 (HEK-blue hTLR7 cell) (Homo sapiens, UniProt Q9NYK1).
T2 construct: host or cells: HEK-blue hTLR7 cell (HEK293-derived reporter line)
T2 sequence (Q9NYK1 27-1049): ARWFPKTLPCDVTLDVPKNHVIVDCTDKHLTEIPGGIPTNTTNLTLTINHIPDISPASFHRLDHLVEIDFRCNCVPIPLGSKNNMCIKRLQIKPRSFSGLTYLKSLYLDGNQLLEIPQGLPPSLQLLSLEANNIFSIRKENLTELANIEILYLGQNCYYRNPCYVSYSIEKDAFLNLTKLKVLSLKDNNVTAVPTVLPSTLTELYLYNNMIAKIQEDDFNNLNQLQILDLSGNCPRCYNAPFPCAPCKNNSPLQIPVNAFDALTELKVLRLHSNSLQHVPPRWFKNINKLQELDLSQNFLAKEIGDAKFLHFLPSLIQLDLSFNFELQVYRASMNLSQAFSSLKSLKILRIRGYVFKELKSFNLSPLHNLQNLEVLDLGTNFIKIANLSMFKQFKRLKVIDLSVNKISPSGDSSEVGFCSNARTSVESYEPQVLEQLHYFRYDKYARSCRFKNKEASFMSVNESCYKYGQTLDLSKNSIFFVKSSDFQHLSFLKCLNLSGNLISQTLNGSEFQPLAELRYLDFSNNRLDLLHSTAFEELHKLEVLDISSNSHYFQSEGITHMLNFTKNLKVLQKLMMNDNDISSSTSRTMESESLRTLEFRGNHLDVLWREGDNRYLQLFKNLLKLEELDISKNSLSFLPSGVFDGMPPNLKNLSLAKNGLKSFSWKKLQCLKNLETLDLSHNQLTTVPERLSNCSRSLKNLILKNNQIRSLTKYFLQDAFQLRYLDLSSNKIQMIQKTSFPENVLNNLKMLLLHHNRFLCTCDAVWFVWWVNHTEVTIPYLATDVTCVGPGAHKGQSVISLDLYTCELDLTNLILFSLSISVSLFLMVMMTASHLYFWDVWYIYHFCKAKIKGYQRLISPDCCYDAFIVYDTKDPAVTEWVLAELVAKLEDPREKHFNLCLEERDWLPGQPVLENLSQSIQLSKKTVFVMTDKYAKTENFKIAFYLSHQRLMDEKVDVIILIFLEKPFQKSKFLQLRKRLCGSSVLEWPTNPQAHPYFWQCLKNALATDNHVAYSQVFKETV
In words: Toll-like receptor 7 in vitro receptor binding activity (HEK-blue hTLR7 cell, Quanti-Blue alkaline phosphatase reporter). It counts as cell-based. The settings on record: 24 h incubation, read-out: TLR7 EC50. The procedure:
as §1, §2, §3, §4, §5, §6, §7, §8, §9

The mark [4] stands for this setting: male, SD, plasma, 1 mg/kg, IV 1 mpk.
Setting [5] is: male, SD, plasma, 3 mg/kg, PO 3 mpk.

The structures appear in SMILES notation. Read-outs that look alike come from different tables or passages of the source.

A word on the AUC(0-inf): it is the area under the concentration-time curve extrapolated to infinity. The term AUC(0-t) denotes exposure summed from dosing to a finite time, without extrapolation to infinity. The term clearance denotes the rate of elimination divided by the concentration. The Cmax is the highest concentration seen after dosing. What is called EC50 is the concentration at which the effect is half-maximal. Turning to `CCCCOc1nc(N)c2[nH]cc(Cc3cnc(CN4CCCC4)s3)c2n1` [Example 1, 2-butoxy-7-((2-(pyrrolidin-1-ylmethyl)thiazol-5-yl)methyl)-5H-pyrrolo[3,2-d]pyrimidin-4-amine], the “Mean plasma drug concentration” value in data set [1] (IV 1 mpk, time 0.083 h) is 500; in data set [1] (IV 1 mpk, time 0.25 h), 277; in data set [1] (IV 1 mpk, time 0.5 h), 197; in data set [1] (IV 1 mpk, time 1 h), 120; in data set [1] (IV 1 mpk, time 2 h), 66.1; in data set [1] (IV 1 mpk, time 4 h), 30.6. Further, the “Mean plasma drug concentration” value in data set [1] (IV 1 mpk, time 8 h) turned out to be 13.1; in data set [1] (PO 3 mpk, time 0.25 h) it was 45.4; in data set [1] (PO 3 mpk, time 0.5 h), 52.0; in data set [1] (PO 3 mpk, time 1 h) it was 86.8; in data set [1] (PO 3 mpk, time 2 h), 113; in data set [1] (PO 3 mpk, time 4 h), 23.6. In addition, in data set [1] (PO 3 mpk, time 8 h), the “Mean plasma drug concentration” value was found to be 5.64. Further, the AUC(0-inf) in data set [1] (setting [4]) turned out to be 0.573 µM·h; in data set [1] (setting [5]), 0.325 µM·h. Moreover, the values for the AUC(0-t) in data set [1] (setting [4]) and in data set [1] (setting [5]) were 0.541 µM·h and 0.313 µM·h, respectively. In addition, the clearance in data set [1] (setting [4]) is 75.8 mL/min/kg. The figures for the Cmax in data set [1] (setting [4]) and in data set [1] (setting [5]) were 673 nM and 148 nM, respectively. In addition, the half-life in data set [1] (setting [4]) was 3.08 h; in data set [1] (setting [5]), 1.54 h. Also, the Vd in data set [1] (male, SD, plasma, 1 mg/kg, IV 1 mpk, read-out: Vdss) worked out at 13.5 L/kg. The EC50 in data set [2] was found to be 29.3 µM; in data set [3], 0.454 µM.
In the case of `CCCCOc1nc(N)c2c(n1)N(Cc1cccc(CN3CCCC3)c1)CC(=O)N2` [GS-9620, reference compound], the “Mean plasma drug concentration” value in data set [1] (IV 1 mpk, time 0.083 h) stood at 170; in data set [1] (IV 1 mpk, time 0.25 h), 102; in data set [1] (IV 1 mpk, time 0.5 h), 65.4; in data set [1] (IV 1 mpk, time 1 h), 48.1; in data set [1] (IV 1 mpk, time 2 h), 21.6; in data set [1] (IV 1 mpk, time 4 h), 13. Also, the “Mean plasma drug concentration” value in data set [1] (IV 1 mpk, time 8 h) amounted to 4.17; in data set [1] (PO 5 mpk, time 0.25 h) it was 56.3; in data set [1] (PO 5 mpk, time 0.5 h), 33.2; in data set [1] (PO 5 mpk, time 1 h) it was 83.4; in data set [1] (PO 5 mpk, time 2 h) it was 136; in data set [1] (PO 5 mpk, time 4 h) it was 16.7. Further, the “Mean plasma drug concentration” value in data set [1] (PO 5 mpk, time 8 h) was 9.49.

The record behind these values is patent US10676478B2, “7-(thiazol-5-yl) pyrrolopyrimidine compound as TLR7 agonist” (CHIA TAI TIANQING PHARMACEUTICAL GROUP CO., LTD., priority 2015, dated 2020).
